Assay results reported in patent US5053418A, “Antiprotozoal agents” (Burroughs Wellcome Co., priority 1983, dated 1991).

Columns and labels:
P.falciparum = test: In vitro activity against P.falciparum: inhibition of 3H-adenosine/3H-hypoxanthine incorporation (modified Desjardins); format: cell-based; settings: for inhibition at 6.25 pg/mL: 0.00000625 mg/L; for inhibition at 12.5 pg/mL: 0.0000125 mg/L; for inhibition at 0.625 µg/mL: 0.625 mg/L; for inhibition at 1.25 µg/mL: 1.25 mg/L; for ED50 for naphthoquinone: 2580 min
Experimental: Each of the two compounds to be tested were dissolved in ethanol at a concentration of 10 mg/L and serially diluted with RPMI 1640 medium and 10% (v/v) human plasma in microtitration plates. P.falciparum-parasitised and fresh blood cells were added together with ^3 H-adenosine or ^3 H-hypoxanthinein RPMI 1640 medium and 10% human plasma. The cultures were then incubated at 37° C. for 43 hours, harvested and the particulate contents collected on glass fibre filter papers which were washed copiously with water using a Cooke Microtiter System (Dynatech Labs. Europe); the filter papers were dried and the radioactivity measured using a scintillation counter. Infected, untreated and uninfected cultures were included as controls. Percent inhibition was correlated with dose to provide an IC50 for each drug alone.
For subsequent combination experiments the individual drug solutions and mixtures thereof were serially diluted.
By the method of Example 1 the effect of a number of naphthoquinone/clopidol (4-pyridinol) combinations on P.falciparum in vitro were determined.

P.yoelii = test: In vivo effect on P.yoelii in mice (inhibition of parasitaemia); settings: for ED50 for naphthoquinone: 5760 min
Experimental: The naphthoquinone and the pyridinol were each suspended in 0.25% (w/v) celacol in water by milling for 16-24 hours at 26° C. The suspensions were subsequently serially diluted with 0.25% (w/v) celacol in water. At time 0, 0.1 ml of a suspension of 10^7 P.yoelii-parasitised red blood cells/ml of phosphate buffered saline were injected intravenously into 15-20 g mice through a tail vein. Groups of 5 mice per treatment were dosed orally at times 6, 22, 30, 46, 54, 70 and 78 hours with 0.2 ml of the drug suspension. Tail-blood smears were taken at 96 hours, stained with Giemsa and the percentage of red blood cells infected determined and compared to untreated, infected controls. Percent inhibition was correlated with dose to provide ED50 values for each drug alone. In subsequent experiments dilutions of the two drugs, alone and in combination were used, and the percentage inhibition of parasitaemia and ED50 values (of each drug at fixed concentrations of the other) were determined. The results are shown respectively in Tables V and VI. A number of combinations of clopidol (4-pyridinol) and naphthoquinones were assayed and compared with each drug alone for their antimalarial effect against P.yoelii in vivo by the method of Example 4.

[1] = Plasmodium falciparum, naphthoquinone alone
[2] = Plasmodium falciparum, 4-pyridinol analogue alone

## CCC(C)(C)C1CCC(C2=C(O)C(=O)c3ccccc3C2=O)CC1 (stereo not shown)
P.falciparum; [1]
  inhibition at 6.25 pg/mL: 31%
  inhibition at 12.5 pg/mL: 51%

## CC(=O)OC1=C(C2CCC(C)(C)CC2)C(=O)c2ccccc2C1=O
P.falciparum; Plasmodium falciparum, naphthoquinone alone, 0.000750 mg/L
  inhibition at 0.00075 µg/mL: 0%
P.falciparum; Plasmodium falciparum, naphthoquinone alone, 0.00150 mg/L
  inhibition at 0.0015 µg/mL: 0%

## CC(C)(C)C1CCCC(C2=C(O)C(=O)c3ccccc3C2=O)C1 (stereo not shown)
P.falciparum; Plasmodium falciparum, naphthoquinone alone, 0.0500 mg/L
  inhibition at 0.05 µg/mL: 8%
P.falciparum; Plasmodium falciparum, naphthoquinone alone, 0.100 mg/L
  inhibition at 0.1 µg/mL: 24%

## O=C1C(O)=C(C2CCCC2)C(=O)c2ccccc21
P.falciparum; [1]
  inhibition at 0.625 µg/mL: 0%
  inhibition at 1.25 µg/mL: 2%

## Cc1ccc(C2CCC(C3=C(O)C(=O)c4ccccc4C3=O)CC2)cc1C (stereo not shown)
P.falciparum; Plasmodium falciparum, naphthoquinone alone, 0.000125 mg/L
  inhibition at 0.000125 µg/mL: 15%
P.falciparum; Plasmodium falciparum, naphthoquinone alone, 0.00025 mg/L
  inhibition at 0.00025 µg/mL: 30%

## O=C1C(O)=C(C2CCC(C3CCCCC3)CC2)C(=O)c2ccccc21 (stereo not shown) [2-(4-cyclohexylcyclohexyl)-3-hydroxy-1,4-naphthoquinone]
P.yoelii; Plasmodium yoelii, po, 96 h, naphthoquinone alone, 0.019 mg/Kg/dose, 7 doses
  inhibition in vivo at 0.019 mg/kg: 13%
P.yoelii; Plasmodium yoelii, po, 96 h, naphthoquinone alone, 0.037 mg/Kg/dose, 7 doses
  inhibition in vivo at 0.037 mg/kg: 28%
P.yoelii; Plasmodium yoelii, po, 96 h, naphthoquinone alone, 0.075 mg/Kg/dose, 7 doses
  inhibition in vivo at 0.075 mg/kg: 17%
P.yoelii; Plasmodium yoelii, po, 96 h, naphthoquinone alone, 0.15 mg/Kg/dose, 7 doses
  inhibition in vivo at 0.15 mg/kg: 16%
P.yoelii; Plasmodium yoelii, po, 96 h, naphthoquinone alone, 0.30 mg/Kg/dose, 7 doses
  inhibition in vivo at 0.3 mg/kg: 74%
P.yoelii; Plasmodium yoelii, po, 96 h, naphthoquinone alone, 0.60 mg/Kg/dose, 7 doses
  inhibition in vivo at 0.6 mg/kg: 99%
P.yoelii; fixed clopidol 0.000 mg/kg/dose (alone)
  ED50 for naphthoquinone: 0.224 (0.224 to 0.208) mg/Kg/dose
P.yoelii; fixed clopidol 0.94 mg/kg/dose
  ED50 for naphthoquinone: 0.109 (0.125 to 0.0909) mg/Kg/dose
P.yoelii; fixed clopidol 1.9 mg/kg/dose
  ED50 for naphthoquinone: 0.0762 (0.0975 to 0.0599) mg/Kg/dose
P.yoelii; fixed clopidol 3.75 mg/kg/dose
  ED50 for naphthoquinone: 0.0519 (0.0599 to 0.0450) mg/Kg/dose
P.yoelii; fixed clopidol 7.5 mg/kg/dose
  ED50 for naphthoquinone: 0.0219 (0.0274 to 0.0151) mg/Kg/dose
P.yoelii; fixed clopidol 15. mg/kg/dose
  ED50 for naphthoquinone: 0.0197 (0.0242 to 0.0121) mg/Kg/dose
P.yoelii; naphthoquinone 0.019 + clopidol 0.94 mg/Kg/dose
  % inhibition of parasitaemia (combination): 16%
P.yoelii; naphthoquinone 0.019 + clopidol 1.9 mg/Kg/dose
  % inhibition of parasitaemia (combination): 23%
P.yoelii; naphthoquinone 0.019 + clopidol 3.7 mg/Kg/dose
  % inhibition of parasitaemia (combination): 11%
P.yoelii; naphthoquinone 0.019 + clopidol 7.5 mg/Kg/dose
  % inhibition of parasitaemia (combination): 42%
P.yoelii; naphthoquinone 0.019 + clopidol 15 mg/Kg/dose
  % inhibition of parasitaemia (combination): 48%
P.yoelii; naphthoquinone 0.037 + clopidol 0.94 mg/Kg/dose
  % inhibition of parasitaemia (combination): 20%
P.yoelii; naphthoquinone 0.037 + clopidol 1.9 mg/Kg/dose
  % inhibition of parasitaemia (combination): 23%
P.yoelii; naphthoquinone 0.037 + clopidol 3.7 mg/Kg/dose
  % inhibition of parasitaemia (combination): 32%
P.yoelii; naphthoquinone 0.037 + clopidol 7.5 mg/Kg/dose
  % inhibition of parasitaemia (combination): 73%
P.yoelii; naphthoquinone 0.037 + clopidol 15 mg/Kg/dose
  % inhibition of parasitaemia (combination): 77%
P.yoelii; naphthoquinone 0.075 + clopidol 0.94 mg/Kg/dose
  % inhibition of parasitaemia (combination): 35%
P.yoelii; naphthoquinone 0.075 + clopidol 1.9 mg/Kg/dose
  % inhibition of parasitaemia (combination): 45%
P.yoelii; naphthoquinone 0.075 + clopidol 3.7 mg/Kg/dose
  % inhibition of parasitaemia (combination): 69%
P.yoelii; naphthoquinone 0.075 + clopidol 7.5 mg/Kg/dose
  % inhibition of parasitaemia (combination): 86%
P.yoelii; naphthoquinone 0.15 + clopidol 0.94 mg/Kg/dose
  % inhibition of parasitaemia (combination): 62%
P.yoelii; naphthoquinone 0.15 + clopidol 1.9 mg/Kg/dose
  % inhibition of parasitaemia (combination): 80%
P.yoelii; naphthoquinone 0.15 + clopidol 3.7 mg/Kg/dose
  % inhibition of parasitaemia (combination): 92%
P.yoelii; naphthoquinone 0.30 + clopidol 0.94 mg/Kg/dose
  % inhibition of parasitaemia (combination): 96%
P.yoelii; naphthoquinone 0.30 + clopidol 1.9 mg/Kg/dose
  % inhibition of parasitaemia (combination): 98%

## CC(C)(C)C1CCC(C2=C(Cl)C(=O)c3ccccc3C2=O)CC1 (stereo not shown) [2-(4-t-butylcyclohexyl)-3-chloro-1,4-naphthoquinone] [listing 1 of 2 here]
P.falciparum; Plasmodium falciparum, naphthoquinone alone, 0.0625 mg/L
  inhibition at 0.0625 µg/mL: 18%
P.falciparum; Plasmodium falciparum, naphthoquinone alone, 0.125 mg/L
  inhibition at 0.125 µg/mL: 14%
P.falciparum; Plasmodium falciparum, naphthoquinone alone, 0.25 mg/L
  inhibition at 0.25 µg/mL: 17%
P.falciparum; Plasmodium falciparum, naphthoquinone alone, 0.50 mg/L
  inhibition at 0.5 µg/mL: 31%
P.falciparum; Plasmodium falciparum, naphthoquinone alone, 1.0 mg/L
  inhibition at 1 µg/mL: 55%
P.falciparum; Plasmodium falciparum, naphthoquinone alone, 2.0 mg/L
  inhibition at 2 µg/mL: 75%

## CC(C)(C)C1CCC(C2=C(Cl)C(=O)c3ccccc3C2=O)CC1 (stereo not shown) [2-(4-t-butylcyclohexyl)-3-chloro-1,4-naphthoquinone] [listing 2 of 2 here]
P.falciparum; fixed clopidol 0.000 mg/L (alone)
  ED50 for naphthoquinone: 0.851 µg/mL
P.falciparum; fixed clopidol 0.00625 mg/L
  ED50 for naphthoquinone: 0.699 µg/mL
P.falciparum; fixed clopidol 0.0125 mg/L
  ED50 for naphthoquinone: 0.401 µg/mL
P.falciparum; fixed clopidol 0.0250 mg/L
  ED50 for naphthoquinone: 0.478 µg/mL
P.falciparum; fixed clopidol 0.0500 mg/L
  ED50 for naphthoquinone: 0.447 µg/mL
P.falciparum; fixed clopidol 0.100 mg/L
  ED50 for naphthoquinone: 0.287 µg/mL
P.falciparum; fixed clopidol 0.200 mg/L
  ED50 for naphthoquinone: 0.198 µg/mL
P.falciparum; fixed clopidol 0.400 mg/L
  ED50 for naphthoquinone: 0.155 µg/mL
P.falciparum; fixed clopidol 0.800 mg/L
  ED50 for naphthoquinone: 0.0801 µg/mL
P.falciparum; fixed clopidol 1.60 mg/L
  ED50 for naphthoquinone: 0.0303 µg/mL
P.falciparum; fixed clopidol 3.20 mg/L
  ED50 for naphthoquinone: 0.0075 µg/mL

## CCCCCCCCCC1=C(O)C(=O)c2ccccc2C1=O [(CH2)8 Me, 2-n-nonyl-3-hydroxy-1,4-naphthoquinone]
P.yoelii; Plasmodium yoelii, po, 96 h, naphthoquinone alone, 3.0 mg/Kg × 7
  inhibition in vivo at 3 mg/kg: 3%
P.yoelii; Plasmodium yoelii, po, 96 h, naphthoquinone alone, 9.0 mg/Kg × 7
  inhibition in vivo at 9 mg/kg: 69%
P.yoelii; naphthoquinone 3.0 + clopidol 1.4 mg/Kg × 7
  % inhibition of parasitaemia (combination): 42%
P.yoelii; naphthoquinone 3.0 + clopidol 4.3 mg/Kg × 7
  % inhibition of parasitaemia (combination): 76%
P.yoelii; naphthoquinone 9.0 + clopidol 1.4 mg/Kg × 7
  % inhibition of parasitaemia (combination): 88%
P.yoelii; naphthoquinone 9.0 + clopidol 4.3 mg/Kg × 7
  % inhibition of parasitaemia (combination): 99%

## CCCCCCCCCCCCCC1=C(O)C(=O)c2ccccc2C1=O [(CH2)12 Me]
P.falciparum; Plasmodium falciparum, naphthoquinone alone, 0.0078 mg/L
  inhibition at 0.0078 µg/mL: 4%
P.falciparum; Plasmodium falciparum, naphthoquinone alone, 0.0156 mg/L
  inhibition at 0.0156 µg/mL: 10%

## Cc1nc(C)c(Br)c(O)c1Br [X = Br, R^3 = Me, 3,5-dibromo-2,6-dimethyl-4-pyridinol]
P.falciparum; Plasmodium falciparum, 4-pyridinol analogue alone, 0.125 mg/L
  inhibition at 0.125 µg/mL: 2%
P.falciparum; Plasmodium falciparum, 4-pyridinol analogue alone, 0.25 mg/L
  inhibition at 0.25 µg/mL: 14%

## CCCc1nc(CCC)c(Br)c(O)c1Br [X = Br, R^3 = Pr, 3,5-dibromo-2,6-dipropyl-4-pyridinol]
P.falciparum; Plasmodium falciparum, 4-pyridinol analogue alone, 3.125 mg/L
  inhibition at 3.125 µg/mL: 9%
P.falciparum; Plasmodium falciparum, 4-pyridinol analogue alone, 6.25 mg/L
  inhibition at 6.25 µg/mL: 15%

## CCCc1nc(CCC)c(Cl)c(O)c1Cl [X = Cl, R^3 = Pr, 3,5-dichloro-2,6-dipropyl-4-pyridinol]
P.falciparum; [2]
  inhibition at 0.625 µg/mL: 12%
  inhibition at 1.25 µg/mL: 24%

## CC(C)(C)C1CCC(C2=C(Cl)C(=O)c3ccccc3C2=O)CC1 (stereo not shown) [drawing 6, 2-(4-t-butylcyclohexyl)-3-chloro-1,4-naphthoquinone]
P.falciparum; naphthoquinone alone, 0.125 mg/L
  % inhibition: 14%
P.falciparum; naphthoquinone alone, 0.25 mg/L
  % inhibition: 17%

## CC(C)(C)C1CCC(C2=C(O)C(=O)c3ccccc3C2=O)CC1 (stereo not shown) [drawing 10]
P.falciparum; [1]
  inhibition at 6.25 pg/mL: 17%
  inhibition at 12.5 pg/mL: 13%

## O=C1C(O)=C(C2CCC(C3CCCCC3)CC2)C(=O)c2ccccc21 (stereo not shown) [drawing 17, 2-(4-cyclohexylcyclohexyl)-3-hydroxy-1,4-naphthoquinone]
P.yoelii; Plasmodium yoelii, po, 96 h, naphthoquinone alone, 0.075 mg/Kg × 7
  inhibition in vivo at 0.075 mg/kg: 17%
P.yoelii; Plasmodium yoelii, po, 96 h, naphthoquinone alone, 0.15 mg/Kg × 7
  inhibition in vivo at 0.15 mg/kg: 16%
P.yoelii; naphthoquinone 0.075 + clopidol 1.9 mg/Kg × 7
  % inhibition of parasitaemia (combination): 45%
P.yoelii; naphthoquinone 0.075 + clopidol 3.75 mg/Kg × 7
  % inhibition of parasitaemia (combination): 69%
P.yoelii; naphthoquinone 0.15 + clopidol 1.9 mg/Kg × 7
  % inhibition of parasitaemia (combination): 80%
P.yoelii; naphthoquinone 0.15 + clopidol 3.75 mg/Kg × 7
  % inhibition of parasitaemia (combination): 92%

## CC(C)(C)C1CCC(C2=C(O)C(=O)c3ccccc3C2=O)CC1 (stereo not shown) [drawing 25]
P.yoelii; Plasmodium yoelii, po, 96 h, naphthoquinone alone, 0.6 mg/Kg × 7
  inhibition in vivo at 0.6 mg/kg: 24%
P.yoelii; Plasmodium yoelii, po, 96 h, naphthoquinone alone, 0.9 mg/Kg × 7
  inhibition in vivo at 0.9 mg/kg: 35%
P.yoelii; naphthoquinone 0.6 + clopidol 2.5 mg/Kg × 7
  % inhibition of parasitaemia (combination): 74%
P.yoelii; naphthoquinone 0.6 + clopidol 5.0 mg/Kg × 7
  % inhibition of parasitaemia (combination): 94%
P.yoelii; naphthoquinone 0.9 + clopidol 2.5 mg/Kg × 7
  % inhibition of parasitaemia (combination): 96%
P.yoelii; naphthoquinone 0.9 + clopidol 5.0 mg/Kg × 7
  % inhibition of parasitaemia (combination): 97%
